Literature values in patent publication US12070444B2, “Modulation of molecular markers using S-equol” (Board of Regents, The University of Texas System, priority 2020, dated 2024).
Where two headings read alike, the source gives them in different places.

Key:
TNBC = conditions: cited from earlier work
Ki67 expression = conditions: IMPACT trial; cited from earlier work
[1] = test system: tumor resistance to ICB immunotherapy; conditions: recent report (Huang, 2020); cited from earlier work

Question: Which response rate (TNBC; Phase 1 study, 27 women, heavily pretreated chemotherapy resistant metastatic TNBC expressing PD-L1 (Nanda et al. 2016)) does the source give for pembrolizumab here?
Answer: 18.4%

Question: With CC(C)(C#N)c1cc(Cn2cncn2)cc(C(C)(C)C#N)c1 [anastrazole] as the molecule, how does the “change in the geometric mean of Ki67 expression after two weeks” value (Ki67 expression) read?
Answer: −76%

Question: For CC/C(=C(\c1ccccc1)c1ccc(OCCN(C)C)cc1)c1ccccc1 [tamoxifen], which “change in the geometric mean of Ki67 expression after two weeks” value (Ki67 expression) is on record?
Answer: −59.5%

Question: With avelumab as the molecule, how does the response rate (TNBC; 168 TNBC tumors unselected for PD-L1 expression (Dirix et al. 2015)) read?
Answer: 8.6%

Question: Which response rate (TNBC; 21 evaluable, PD-L1 expressing TNBC tumors (Emens et al. 2015)) does the source give for atezolizumab here?
Answer: 19%

Question: For Oc1ccc([C@@H]2Oc3ccc(O)cc3[C@@H]3CCC[C@@H]32)cc1 [LY500307], which “effect on tumor resistance to ICB immunotherapy” value [1] is on record?
Answer: overcoming tumor resistance to ICB immunotherapy
